Reference: patent publication US10485836B2, “Anti-fatigue composition used for increasing endurance performance, and use of the same” (SINPHAR PHARMACEUTICAL CO., LTD., priority 2017, dated 2019)

Legend:
C2C12 muscle cells [1] = test: Oxygen consumption rate of TNF-α damaged muscle cells (Seahorse XF24); assay type: cell-based, mice; details: TNF-α 10 ng/ml, relative to control group (1-fold); for oxygen consumption of ATP production: FIG. 1A; for oxygen consumption of maximal respiration: FIG. 1B
Source text: (§1) It is known that severe exercise or long-term exercise may lead to a large release of tumor necrosis factor alpha (TNF-α) and a decrease in mitochondria functions such as oxygen consumption rate (OCR, which represents the ability of aerobic metabolism of mitochondria) and extracellular acidification rate (ECAR, which represents the ability of glycolysis of mitochondria), so that the mitochondria cannot generate enough energy to supply cells in a subject, thereby resulting in the occurrence of fatigue in the subject. In this example, the C2C12 muscle cells with TNF-α induced damages were administered with the composition of the present invention, which comprises Cistanche tubulosa extract and ubiquinol, to understand the effect of the composition on anti-fatigue.
First, C2C12 cells (i.e., the muscle cells of mice; purchased from ATCC) were cultivated in an H-DMEM medium (purchased from Sigma company) containing 10% fetal bovine serum (purchased from BI company). After the C2C12 cells grew to the confluence rate of 80% (i.e., the mixed monolayer cells were accounted for 80% of the area), the cells were divided into seventeen groups (including a control group, a TNF-α group and fifteen experimental groups) and separately subjected to the following treatments: • 1. Control group: cells were cultivated in an H-DMEM medium for 6 hours; and then, the medium was replaced with a differentiation medium (containing an H-DMEM medium and 2% horse serum), and the cells were continuously cultivated for another 4 days. • 2. TNF-α group: cells were cultivated in an H-DMEM medium for 6 hours; and then, the medium was replaced with a differentiation medium (containing an H-DMEM medium and 2% horse serum) being externally added with TNF-α (to a final concentration of 10 ng/ml), and the cells were continuously cultivated overnight; finally, the medium was replaced with a differentiation medium, and the cells were cultivated for another 4 days. • 3. […] In Table 1, the extract and ubiquinol were dissolved in a differentiation medium, and the unit “μg/ml” represents the weight of extract (as dry weight) and/or ubiquinol (as dry weight) in every milliliter of the differentiation medium.
The cells in the control group, TNF-α group and experimental groups 1 to 15 provided by Example (1-1) were respectively taken, and the oxygen consumption rates (including the oxygen consumption of ATP production and the oxygen consumption of maximal respiration) thereof were examined by a cell energy metabolism analyzer (Seahorse XF24). Then, the result of the control group was served as a basis (i.e., the oxygen consumption rate of the control group was set as 1-fold) to calculate the oxygen consumption rate of each group.

C2C12 muscle cells [2] = test: Extracellular acidification rate of TNF-α damaged muscle cells (cell energy metabolism analyzer); assay type: cell-based, mice; details: TNF-α 10 ng/ml, relative to control group (1-fold)
Source text: as §1
First, C2C12 cells (i.e., the muscle cells of mice; purchased from ATCC) were cultivated in an H-DMEM medium (purchased from Sigma company) containing 10% fetal bovine serum (purchased from BI company). After the C2C12 cells grew to the confluence rate of 80% (i.e., the mixed monolayer cells were accounted for 80% of the area), the cells were divided into seventeen groups (including a control group, a TNF-α group and fifteen experimental groups) and separately subjected to the following treatments: • 1. […]

Compound	oxygen consumption of ATP production (C2C12 muscle cells [1])	oxygen consumption of maximal respiration (C2C12 muscle cells [1])	glycolysis level (C2C12 muscle cells [2]; FIG. 2A)	glycolytic reserve (C2C12 muscle cells [2]; FIG. 2B)
TNF-α	significantly decreased	significantly decreased	significantly increased	significantly decreased
COc1c(O)c(C)c(C/C=C(\C)CC/C=C(\C)CC/C=C(\C)CC/C=C(\C)CC/C=C(\C)CC/C=C(\C)CC/C=C(\C)CC/C=C(\C)CC/C=C(\C)CCC=C(C)C)c(O)c1OC [ubiquinol]	cannot alleviate	cannot alleviate		
